Laboratory results taken from ChEMBL document CHEMBL1137052 (Bioorg Med Chem Lett, 2004).

Assays:
[1] = Bioavailability in rat (dose 2 mg/kg p.o./i.v.); assay type: ADME, organism-based; conditions: in vivo, po
[2] = tested on: Cavia porcellus; assay: Percent inhibition of histamine-induced bronchoconstriction in guinea pig after 3h of oral dose of 2 mg/kg
[3] = biological target: T1, Polyunsaturated fatty acid 5-lipoxygenase (Homo sapiens, UniProt P09917); assay: Inhibition of 5-lipoxygenase activity in human whole blood assay; assay type: tissue-based
T1 sequence (P09917 whole entry): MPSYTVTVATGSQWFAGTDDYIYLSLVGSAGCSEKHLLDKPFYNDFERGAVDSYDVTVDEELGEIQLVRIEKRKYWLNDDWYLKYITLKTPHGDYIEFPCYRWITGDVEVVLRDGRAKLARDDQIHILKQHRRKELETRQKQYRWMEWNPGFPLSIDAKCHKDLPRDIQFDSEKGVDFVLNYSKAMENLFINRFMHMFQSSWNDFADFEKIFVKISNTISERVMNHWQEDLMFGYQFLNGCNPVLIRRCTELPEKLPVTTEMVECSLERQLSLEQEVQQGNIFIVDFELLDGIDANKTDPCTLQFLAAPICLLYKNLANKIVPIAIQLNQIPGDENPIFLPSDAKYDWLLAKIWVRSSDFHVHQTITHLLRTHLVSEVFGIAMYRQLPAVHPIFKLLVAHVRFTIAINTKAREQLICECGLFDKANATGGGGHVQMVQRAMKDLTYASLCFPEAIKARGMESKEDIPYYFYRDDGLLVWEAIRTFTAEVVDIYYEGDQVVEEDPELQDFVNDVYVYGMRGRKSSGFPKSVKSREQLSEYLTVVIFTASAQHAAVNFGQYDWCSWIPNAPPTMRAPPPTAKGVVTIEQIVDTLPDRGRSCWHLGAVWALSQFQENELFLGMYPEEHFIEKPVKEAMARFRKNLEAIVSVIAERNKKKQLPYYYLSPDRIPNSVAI

[4] = Metabolic clearance in rat liver microsomes; assay type: ADME, Microsome; conditions: read-out: Clearance
[5] = tested on: Cavia porcellus; assay: Percent inhibition of calcium ionophore-induced LTB4 production in guinea pig after 3h of oral dose of 2 mg/kg
[6] = Metabolic clearance in human liver microsomes; assay type: ADME, Microsome; conditions: read-out: Clearance
[7] = Plasma concentration of compound in guinea pig after 3h of oral dose of 2 mg/kg; assay type: ADME, organism-based, Cavia porcellus; set-up: dose 2 mg/kg, route oral
[8] = Metabolic clearance in guinea pig liver microsomes; assay type: ADME, Cavia porcellus, Microsome; conditions: read-out: Clearance
[9] = Area under plasma concentration-time curve in rat upon oral/iv administration at 2 mg/kg; assay type: ADME, organism-based; set-up: dose 2 mg/kg; conditions: in vivo
[10] = Maximum plasma concentration in rat upon oral/iv administration at 2 mg/kg; assay type: ADME, organism-based; set-up: dose 2 mg/kg
[11] = read-out: Concentration, in vivo

| IC50 [3] | microsomal CLint [4] | microsomal CLint [6] | microsomal CLint [8] | Compound | further results |
| --- | --- | --- | --- | --- | --- |
| 68 nM | – | – | – | NC(=O)N(O)CCC#Cc1ccc(OCCCCN2CCN([C@H](c3ccccc3)c3ccc(Cl)cc3)CC2)cc1 | – |
| 194 nM | – | – | – | NC(=O)N(O)CCC#Cc1ccc(OCCCN2CCC(=C3c4ccc(Cl)cc4CCc4cccnc43)CC2)cc1 | – |
| 57 nM | – | – | – | NC(=O)N(O)CCC#Cc1ccc(OCCCCN2CCC(=C3c4ccc(Cl)cc4CCc4cccnc43)CC2)cc1 | – |
| 185 nM | 101 µL/min/mg | 15 µL/min/mg | 105 µL/min/mg | NC(=O)N(O)CCC#Cc1ccc(OCCN2CCC(=C3c4ccc(Cl)cc4CCc4cccnc43)CC2)cc1 | bioavailability [1]: 8%; inhibition in vivo at 2 mg/kg [2]: 65%; inhibition in vivo at 2 mg/kg [5]: 84%; concentration ([7]; in vivo): 72 ng/mL; concentration [7, 11]: 129 nM; AUC [9]: 83 ng·h/mL; Cmax [10]: 30 ng/mL |

The next lines start with the compound.

| Compound | IC50 [3] | microsomal CLint [4] | microsomal CLint [6] | microsomal CLint [8] | further results |
| --- | --- | --- | --- | --- | --- |
| NC(=O)N(O)CCC#Cc1ccc(OCCN2CCN([C@H](c3ccccc3)c3ccc(Cl)cc3)CC2)cc1 | 213 nM | 48 µL/min/mg | 2 µL/min/mg | 19 µL/min/mg | bioavailability [1]: 23%; inhibition in vivo at 2 mg/kg [2]: 62%; inhibition in vivo at 2 mg/kg [5]: 41%; concentration ([7]; in vivo): 187 ng/mL; concentration [7, 11]: 350 nM; AUC [9]: 300 ng·h/mL; Cmax [10]: 66 ng/mL |
| NC(=O)N(O)CCC#Cc1ccc(OCCN2CCN(C(c3ccc(F)cc3)c3ccc(F)cc3)CC2)cc1 | 48 nM | – | – | – | – |
| NC(=O)N(O)CCC#Cc1ccc(OCCCN2CCN(C(c3ccc(F)cc3)c3ccc(F)cc3)CC2)cc1 | 90 nM | – | – | – | – |
| NC(=O)N(O)CCC#Cc1ccc(OCCCCN2CCN(C(c3ccc(F)cc3)c3ccc(F)cc3)CC2)cc1 | 89 nM | 138 µL/min/mg | 13 µL/min/mg | 111 µL/min/mg | – |
| NC(=O)N(O)CCC#Cc1ccc(OCCCN2CCN([C@H](c3ccccc3)c3ccc(Cl)cc3)CC2)cc1 | 96 nM | 108 µL/min/mg | – | 99 µL/min/mg | – |
